Reference: patent US6011058A, “Seco-cholestane derivatives and methods of making the same” (Georgia Tech Research Corporation, priority 1998, dated 2000)
pIC50: −log10 of the molar value. In brackets after ≈: the same amount, converted by molar mass. Entries after “also recorded” stand apart in the source; their conditions may differ. Read-outs that look alike come from different tables or passages of the source. Blank lines part the entries; values can stand above or below the compound they belong to.

Assays:
[1] = target: T1, glutathione S-transferase (GST) fusion protein containing the full length sequence for human cdc25A (Homo sapiens, UniProt P30304); experiment: Inhibition of CDC25A phosphatase (fluorescein diphosphate substrate); assay type: biochemical; conditions: for IC50: 10 mM dithiothreitol, fluorescein diphosphate substrate, read-out: Approximate IC50 (concentration yielding 50% inhibition of cdc25A) (converted); for relative potency against CDC25A, vs the double bond unsaturated compounds in the series: compared with double bond unsaturated compound in this series
T1 construct: made in house; host or cells: Escherichia coli
T1 sequence (P30304 1-524): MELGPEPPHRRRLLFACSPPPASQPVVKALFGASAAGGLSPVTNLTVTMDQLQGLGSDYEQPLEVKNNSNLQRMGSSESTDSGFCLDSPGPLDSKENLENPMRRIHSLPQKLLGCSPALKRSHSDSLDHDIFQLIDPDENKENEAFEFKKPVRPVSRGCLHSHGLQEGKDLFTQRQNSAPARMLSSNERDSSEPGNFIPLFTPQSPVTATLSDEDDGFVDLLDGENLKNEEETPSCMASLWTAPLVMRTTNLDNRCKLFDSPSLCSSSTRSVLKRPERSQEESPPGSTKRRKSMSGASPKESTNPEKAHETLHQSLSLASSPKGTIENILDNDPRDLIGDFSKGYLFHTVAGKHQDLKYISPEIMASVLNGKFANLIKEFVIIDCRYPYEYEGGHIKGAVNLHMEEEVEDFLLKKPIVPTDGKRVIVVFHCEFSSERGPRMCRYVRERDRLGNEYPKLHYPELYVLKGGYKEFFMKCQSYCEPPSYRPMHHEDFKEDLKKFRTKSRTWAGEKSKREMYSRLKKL
Text: Rice, R. L. et al., A targeted Library of Small-Molecule, Tyrosine, and Dual-Specificity Phosphatase Inhibitors Derived from a Rational Core Design and Random Side Chain Variation, Biochemistry, 1997, 36, 15965-15974. Briefly, the target enzyme for the assay was a glutathione S-transferase (GST) fusion protein containing the full length sequence for human cdc25A. The enzyme was expressed in Escherichia coli and purified by affinity chromatography over glutathione-agarose. Enzyme activity was measured under linear reaction conditions with fluorescein diphosphate as the substrate. Reactions were performed in the presence of 10 mM dithiothreitol to eliminate oxidant-type inhibitors from scoring as hits in this assay.

[2] = test system: HT-29 human colon cancer cells; experiment: Inhibition of HT-29 colon carcinoma cell growth, soft agarose colony-forming assay; assay type: cell-based; conditions: HT-29, 168 h, continuous drug exposure over 7 days, read-out: IC50, proliferation of HT-29 colon cancer cells
Protocol: (§1) HT-29 human colon cancer cells and A549 human lung adenocarcinoma cells were purchased from the American Tissue Type Collection (Rockville, Md.). The cell were maintained in Dulbecco's modified Eagle's media (DMEM) containing 10% fetal bovine serum and harvested with 0.05% trypsin and 0.5 mM EDTA before becoming confluent.
Compounds 6 and 8 prepared as discussed in the preceding examples were also evaluated for potency as inhibitors of colon cancer cell lines (HT-29). Inhibition of HT-29 colon carcinoma cell growth by compounds 6 and 8 was measured in the soft agarose colony-forming assay with continuous drug exposure over 7 days as previously described. Alley M. C. et al., Activation and inactivation of cancer chemotherapeutic agents by rat heptocytes cocultured with human tumor cell lines, Cancer Res 44:549 (1984). Briefly, soft-agarose culture was performed in 35-mm culture dishes contained a base layer consisting of 0.5 ml of standard culture medium with 0.5% agarose. […] Cell lines forming a sufficient number of detectable colonies were analyzed following 7 days of incubation. Viable colonies were stained using metabolizable tetrazolium salt, and analyzed as described previously. […]

[3] = test system: A549 human lung adenocarcinoma cells; experiment: Clonogenic assay, inhibition of growth of lung adenocarcinoma (A549) cells; assay type: cell-based
Protocol: as §1
Compound 6 prepared as discussed in the preceding examples were also evaluated for potency as inhibitors of the growth of lung adenocarcinoma cell lines. The effect of compound 6 was assessed with a clonogenic assay. In brief, A549 cells in log-phase growth were harvested, resuspended in fresh growth media and plated in triplicate in 60 mm dishes at cell concentrations estimated to yield 20-100 colonies per dish following treatment. Four hours after plating, cells were either exposed to compound 6 for one day followed by a wash and culture in fresh medium for 11 days (dotted line), or continuously exposed to this compound for 12 days (solid line). Cells were fixed and stained with Coomassie Blue at the end of the 12th day. Colonies with greater than 50 cells were scored.

Compound: CC(C)CCC[C@@H](C)[C@H]1CC[C@H]2[C@@H]3CC(=O)O[C@](C)(CCCCC#N)[C@H]3CC[C@]12C [Compound 15]
IC50 [1]: 2.17 µM | relative potency against CDC25A, vs the double bond unsaturated compounds in the series [1]: much more potent

Compound: C=C(CCCCC#N)[C@H]1CC[C@]2(C)[C@@H]([C@H](C)CCCC(C)C)CC[C@H]2[C@@H]1CC(=O)O [Compound 13]
IC50 [1]: 2.17 µM | relative potency against CDC25A, vs the double bond unsaturated compounds in the series [1]: much more potent

Compound: CC(C)CCC[C@@H](C)[C@H]1CC[C@H]2[C@@H]3CC(=O)O[C@@](C)(CC/C=C\C#N)[C@H]3CC[C@]12C [Compound 7]
IC50 [1]: > 121 µM | relative activity against CDC25A, vs 10R isomer compound 6 ([1]; 10S vs 10R isomer, compound 6): much less active

Compound: CC(C)CCC[C@@H](C)[C@H]1CC[C@H]2[C@@H]3CC(=O)O[C@](C)(CC/C=C\C#N)[C@H]3CC[C@]12C [Compound 6]
IC50 [2]: 5 µg/mL (≈ 12.1 µM) | pIC50 ([3]; A549, 288 h, 12-day continuous exposure, read-out: concentration reducing number of A549 colonies per dish 50%): 5.15 | pIC50 ([3]; A549, one day exposure, wash, then fresh medium for 11 days, read-out: concentration giving 50% reduction of the tumor cell colony number per dish): 4.43 | IC50 [1]: 14.5 µM

Compound: 3-actoxy-5, 6-seco-5-oxo-pregnen-6-oic acid [reference compound]
inhibitory activity against CDC25A phosphatase ([1]; negative control): no inhibitory activity; also recorded: lost its activity

The next lines start with the values.

IC50 [1]: > 24.2 µM
Compound: C/C(=C/C/C=C\C#N)[C@H]1CC[C@]2(C)[C@@H]([C@H](C)CCCC(C)C)CC[C@H]2[C@@H]1CC(=O)O [Compound 9]

IC50 [1]: 24.2 µM
Compound: C/C(=C\C/C=C\C#N)[C@H]1CC[C@]2(C)[C@@H]([C@H](C)CCCC(C)C)CC[C@H]2[C@@H]1CC(=O)O [Compound 10]

IC50 [2]: 4.8 µg/mL (≈ 11.6 µM) | IC50 [1]: 10.6 µM
Compound: C=C(CC/C=C\C#N)[C@H]1CC[C@]2(C)[C@@H]([C@H](C)CCCC(C)C)CC[C@H]2[C@@H]1CC(=O)O [Compound 8]
